Source: PMC8041784, “Preference of Proteomonas sulcata anion channelrhodopsin for NO3^− revealed using a pH electrode method” (Scientific Reports, 2021)

Experiments:
GtACR1 [1] = biological target: T1, GtACR1 (Guillardia theta, UniProt L1J207); assay: light-induced pH change of yeast cell suspension (pH electrode); format: cell-based; settings: 300 mM NaNO3; 530 nm LED 10 mW/cm^2; initial pH about 5; about 16 °C
T1 construct: gene GUITHDRAFT_111593; 295 residues, C-terminal 8xHis tag, codon-optimised gene, expressed in Pichia pastoris SMD1168H cells; also purified in DDM

GtACR1 [2] = biological target: T1, GtACR1; assay: visible absorption spectrum of purified protein; format: binding; settings: covalent (retinal protonated Schiff base); 10 mM MOPS pH 7, 1 M NaCl, 0.05% DDM

T1 sequence (L1J207 entry or part of it): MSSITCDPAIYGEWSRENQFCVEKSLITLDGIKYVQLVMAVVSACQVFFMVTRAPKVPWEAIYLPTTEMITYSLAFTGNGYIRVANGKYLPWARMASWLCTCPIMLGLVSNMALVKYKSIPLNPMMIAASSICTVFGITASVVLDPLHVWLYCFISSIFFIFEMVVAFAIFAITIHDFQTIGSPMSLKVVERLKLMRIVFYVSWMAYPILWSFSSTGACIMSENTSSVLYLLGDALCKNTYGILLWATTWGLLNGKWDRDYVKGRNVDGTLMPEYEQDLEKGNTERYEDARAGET

SMILES | light-induced pH change of yeast cell suspension (pH electrode) (GtACR1 [1]) | visible absorption spectrum of purified protein (GtACR1 [2])
O=[N+]([O-])O [NO3^−] | significant transport activities were obtained for the anions except for F^− and Asp^− | 
CC1=C(/C=C/C(C)=C/C=C/C(C)=C/C=O)C(C)(C)CCC1 [all-trans-retinal] |  | Visible absorption spectrum of purified GtACR1
